Patent publication US4748232A, “Peptide production and use thereof” (Suntory Limited, priority 1983, dated 1988)

How the values were obtained:
Male rats = assay: Diuretic and natriuretic action in anesthetized rats (urine collected via bladder cannula); type: in vivo, rat; conditions: 1.21 μ mole, group V
Procedure: To keep the respiratory tract open, a tracheal cannula (PE-240 Clay-Adams) was inserted into the trachea. An arterial cannula (PE-50) was inserted into a femoral artery for measurement of the blood pressure, and a venous cannula was inserted into a femoral vein for the administration of Ringer's solution. 1.2 ml of Ringer's solution was injected for ten minutes, and subsequently, was constantly infused at a flow rate of 1.2 ml/hour.
A bladder cannula made of silastic tube with an inner diameter of 0.02 inches and an outer diameter of 0.037 inches was inserted into the bladder, and via the cannula, a urine sample was collected into a test tube. The collection of urine was carried out for 30 minutes before administration of the test compound, and every five minutes after the administration.
The control group (group I) was administered 50 μl of physiological saline containing only bacitracin.
Groups I to IV each consisted of three animals, and group V consisted of four animals.

[1] = Immunogenicity and toxicity on administration; type: in vivo
Solubility in solvents = type: physicochemical

Solubility in solvents (Solubility in solvents; ethyl acetate, butyl acetate, ethyl ether, hexane, petroleum ether, benzene, and chloroform) | Solubility in solvents (Solubility in solvents; methanol, and acetic acid) | Solubility in solvents (Solubility in solvents; water) | Structure (SMILES) | Urine volume A (Male rats; A: sample collected 5 minutes after administration) [µL/min] | Urine volume B (Male rats; B: sample collected 30 minutes before administration) [µL/min] | toxicity ([1]; gradually hydrolized in a body providing the L-amino acids) | anaphylaxis shock ([1]; repeated administration) | production of antibodies ([1]; repeated administration)
– | – | – | NS(=O)(=O)c1cc(C(=O)O)c(NCc2ccco2)cc1Cl [Furosemide, furosemide] | 167 ± 28 | 8.6 ± 1.9 | – | – | –
insoluble | partially | soluble | CC[C@H](C)[C@@H]1NC(=O)[C@H](CCCNC(=N)N)NC(=O)[C@H](CC(=O)O)NC(=O)[C@H](CCSC)NC(=O)[C@H](CCCNC(=N)N)NC(=O)CNC(=O)CNC(=O)[C@H](Cc2ccccc2)NC(=O)[C@@H](NC(=O)[C@H](CO)NC(=O)[C@H](CO)NC(=O)[C@H](CCCNC(=N)N)NC(=O)[C@H](CCCNC(=N)N)NC(=O)[C@H](CC(C)C)NC(=O)[C@@H](N)CO)CSSC[C@@H](C(=O)N[C@@H](CC(N)=O)C(=O)N[C@@H](CO)C(=O)N[C@@H](Cc2ccccc2)C(=O)N[C@@H](CCCNC(=N)N)C(=O)N[C@@H](Cc2ccc(O)cc2)C(=O)O)NC(=O)CNC(=O)[C@H](CC(C)C)NC(=O)CNC(=O)[C@H](CO)NC(=O)[C@H](CCC(N)=O)NC(=O)[C@H](C)NC(=O)CNC1=O [α-hANP, α-human atrial natriuretic polypeptide] | – | – | little toxicity | does not cause anaphylaxis shock | does not stimulate production of antibodies
